From patent publication US20170334899A1, “AMINO-SUBSTITUTED ISOTHIAZOLES” (Bayer Pharma Aktiengesellschaft, priority 2014, published 2017)

What follows are molecules tested against T1, human kinase Mps-1 (Homo sapiens, UniProt P33981) (assay: Mps-1 kinase assay (TR-FRET)). Conditions: Mps-1 TR-FRET kinase assay; avg; read-out: Mps1 avg (IC50 [mol/l]).
T1 construct: N-terminally GST-tagged human full length recombinant Mps-1 kinase; GST (N); purchased Invitrogen, Karslruhe, Germany PV4071
T1 sequence (P33981 1-857): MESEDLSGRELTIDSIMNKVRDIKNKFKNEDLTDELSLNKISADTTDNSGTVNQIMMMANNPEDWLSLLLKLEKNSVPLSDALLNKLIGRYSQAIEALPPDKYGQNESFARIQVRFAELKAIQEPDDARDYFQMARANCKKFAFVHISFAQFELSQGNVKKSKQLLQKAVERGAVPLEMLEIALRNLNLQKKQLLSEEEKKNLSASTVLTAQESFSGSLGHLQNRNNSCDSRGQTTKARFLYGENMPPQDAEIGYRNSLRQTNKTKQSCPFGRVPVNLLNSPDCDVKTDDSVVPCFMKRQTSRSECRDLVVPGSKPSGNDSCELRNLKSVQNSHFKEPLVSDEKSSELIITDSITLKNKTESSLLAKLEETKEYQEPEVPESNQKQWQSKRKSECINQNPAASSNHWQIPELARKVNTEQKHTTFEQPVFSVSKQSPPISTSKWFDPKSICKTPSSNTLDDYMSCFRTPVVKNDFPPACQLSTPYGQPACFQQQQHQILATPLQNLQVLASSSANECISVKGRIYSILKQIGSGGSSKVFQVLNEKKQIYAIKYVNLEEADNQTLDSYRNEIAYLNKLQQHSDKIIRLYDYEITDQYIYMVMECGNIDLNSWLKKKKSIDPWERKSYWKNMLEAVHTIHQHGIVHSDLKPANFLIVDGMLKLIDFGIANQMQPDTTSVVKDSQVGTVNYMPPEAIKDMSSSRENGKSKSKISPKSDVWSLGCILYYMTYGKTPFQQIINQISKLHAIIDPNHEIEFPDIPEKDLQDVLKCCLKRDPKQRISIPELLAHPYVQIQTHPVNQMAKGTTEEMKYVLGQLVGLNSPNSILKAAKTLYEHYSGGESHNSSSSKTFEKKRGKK
Type: biochemical
Procedure, shortened: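 Inhibition normalised between uninhibited reaction (0%) and enzyme-free wells (100%), using the blank-corrected TR-FRET 665/620 nm ratio after EDTA stop. Reaction: ~0.5 nM GST-Mps-1 full length, 10 μM ATP, 1 μM biotin-peptide, 60 min at 22 °C, after 15 min compound pre-binding, pH 7.7.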

| SMILES | IC50 [µM] |
| --- | --- |
| CCN1CC[C@H](Oc2ccc(NC(=O)c3c(C)nsc3Nc3cnc(C(F)(F)F)cn3)cn2)[C@H](F)C1 [Example 424, N-(6-{[(3R,4S)-1-Ethyl-3-fluoropiperidin-4-yl]oxy}pyridin-3-yl)-3-methyl-5-{[5-(trifluoromethyl)pyrazin-2-yl]amino}-1,2-thiazole-4-carboxamide] | > 20 |
| Cc1nsc(Nc2cnccn2)c1C(=O)Nc1ccc(OC2CCCN(C(=O)OC(C)(C)C)C2)nc1 (stereo not drawn) [Example 41, tert-Butyl 3-{[5-({[3-methyl-5-(pyrazin-2-ylamino)-1,2-thiazol-4-yl]carbonyl}amino)-pyridin-2-yl]oxy}piperidine-1-carboxylate] | ≥ 20 |
| Cc1nsc(Nc2cc(C#N)ccn2)c1C(=O)Nc1ccc(OCCCN)nc1 [Example 44, N-[6-(3-Aminopropoxy)pyridin-3-yl]-5-[(4-cyanopyridin-2-yl)amino]-3-methyl-1,2-thiazole-4-carboxamide] | ≥ 20 |
| Cc1nsc(Nc2cnc3ccccc3n2)c1C(=O)Nc1cccc(C(=O)NC(C)(C)C)c1 [Example 53, N-[3-(tert-Butylcarbamoyl)-phenyl]-3-methyl-5-(quinoxalin-2-ylamino)-1,2-thiazole-4-carboxamide] | ≥ 20 |
| Cc1nsc(Nc2nc3c(C(F)(F)F)cccc3s2)c1C(=O)Nc1ccc(OCCO)c(F)c1 [Example 4, N-[3-Fluoro-4-(2-hydroxyethoxy)phenyl]-3-methyl-5-{[4-(trifluoromethyl)-1,3-benzothiazol-2-yl]amino}-1,2-thiazole-4-carboxamide] | ≥ 20 |
| Cc1nsc(Nc2cnc(C(F)(F)F)cn2)c1C(=O)Nc1ccc(OC[C@H]2CCN(CC(F)(F)F)C2)nc1 [Example 404, 3-Methyl-N-(6-{[(3S)-1-(2,2,2-trifluoroethyl)pyrrolidin-3-yl]methoxy}pyridin-3-yl)-5-{[5-(trifluoromethyl)pyrazin-2-yl]amino}-1,2-thiazole-4-carboxamide] | > 20 |
| COCCOc1ccc(NC(=O)c2c(C)nsc2Nc2nc3c(C(F)(F)F)cccc3s2)cc1F [Example 1, N-[3-Fluoro-4-(2-methoxyethoxy)phenyl]-3-methyl-5-{[4-(trifluoromethyl)-1,3-benzothiazol-2-yl]amino}-1,2-thiazole-4-carboxamide] | ≥ 20 |
| Cc1nsc(Nc2cc(C#N)ccn2)c1C(=O)Nc1ccc(OCCCNC(=O)OC(C)(C)C)nc1 [Example 43, tert-Butyl [3-({5-[({5-[(4-cyanopyridin-2-yl)amino]-3-methyl-1,2-thiazol-4-yl}-carbonyl)amino]pyridin-2-yl}oxy)propyl]carbamate] | ≥ 20 |
| Cc1nsc(Nc2cnc(C(F)(F)F)cn2)c1C(=O)Nc1ccc(OCCCNC(=O)C(F)(F)F)nc1 [Example 428, 3-Methyl-N-(6-{3-[(trifluoroacetyl)amino]propoxy}pyridin-3-yl)-5-{[5-(trifluoro-methyl)pyrazin-2-yl]amino}-1,2-thiazole-4-carboxamide] | > 20 |
| COC(=O)c1cccc(NC(=O)c2c(C)nsc2Nc2cnc3ccccc3n2)c1 [Example 50, Methyl 3-({[3-methyl-5-(quinoxalin-2-ylamino)-1,2-thiazol-4-yl]carbonyl}amino)-benzoate] | 2.5 |
| Cc1nsc(Nc2ccc(C#N)cn2)c1C(=O)Nc1ccc(OC2CCCN(C(=O)OC(C)(C)C)C2)nc1 (stereo not drawn) [Example 36, tert-Butyl 3-({5-[({5-[(5-cyanopyridin-2-yl)amino]-3-methyl-1,2-thiazol-4-yl}-carbonyl)amino]pyridin-2-yl}oxy)piperidine-1-carboxylate] | ≥ 20 |
| Cc1nsc(Nc2cnccn2)c1C(=O)Nc1ccc(OCCCN)nc1 [Example 48, N-[6-(3-Aminopropoxy)pyridin-3-yl]-3-methyl-5-(pyrazin-2-ylamino)-1,2-thiazole-4-carboxamide] | ≥ 20 |
| Cc1nsc(Nc2nc3c(C(F)(F)F)cccc3s2)c1C(=O)Nc1ccc(OCCO)nc1 [Example 2, N-[6-(2-Hydroxyethoxy)pyridin-3-yl]-3-methyl-5-{[4-(trifluoromethyl)-1,3-benzo-thiazol-2-yl]amino}-1,2-thiazole-4-carboxamide] | ≥ 20 |
| Cc1nsc(Nc2cnc3ccccc3n2)c1C(=O)Nc1ccc(OCCCNC(=O)OC(C)(C)C)nc1 [Example 42, tert-Butyl (3-{[5-({[3-methyl-5-(quinoxalin-2-ylamino)-1,2-thiazol-4-yl]carbonyl}-amino)pyridin-2-yl]oxy}propyl)carbamate] | ≥ 20 |
| Cc1nsc(Nc2ccc(C#N)cn2)c1C(=O)Nc1ccc(OC2CCCN(CC(F)(F)F)C2)nc1 (stereo not drawn) [Example 40, 5-[(5-Cyanopyridin-2-yl)amino]-3-methyl-N-(6-{[1-(2,2,2-trifluoroethyl)piperidin-3-yl]oxy}pyridin-3-yl)-1,2-thiazole-4-carboxamide] | ≥ 20 |
| CC(=O)Nc1ccc(NC(=O)c2c(C)nsc2Nc2ccc(C#N)cn2)cn1 [Example 435, N-(6-Acetamidopyridin-3-yl)-5-[(5-cyanopyridin-2-yl)amino]-3-methyl-1,2-thiazole-4-carboxamide] | > 20 |
| Cc1nsc(Nc2cnc3ccccc3n2)c1C(=O)Nc1cccc(C(=O)OC(C)(C)C)c1 [Example 49, tert-Butyl 3-({[3-methyl-5-(quinoxalin-2-ylamino)-1,2-thiazol-4-yl]carbonyl}amino)-benzoate] | ≥ 20 |
| Cc1nsc(Nc2ccc(C#N)cn2)c1C(=O)Nc1ccc(OCCCNC(=O)OC(C)(C)C)nc1 [Example 46, tert-Butyl [3-({5-[({5-[(5-cyanopyridin-2-yl)amino]-3-methyl-1,2-thiazol-4-yl}-carbonyl)amino]pyridin-2-yl}oxy)propyl]carbamate] | ≥ 20 |
| Cc1nsc(Nc2cnc(C(F)(F)F)cn2)c1C(=O)Nc1ccc(OCCN2CCC(F)(F)CC2)nc1 [Example 407, N-{6-[2-(4,4-Difluoropiperidin-1-yl)ethoxy]pyridin-3-yl}-3-methyl-5-{[5-(trifluoromethyl)pyrazin-2-yl]amino}-1,2-thiazole-4-carboxamide] | > 20 |
| Cc1nsc(Nc2ccc(C#N)cn2)c1C(=O)Nc1ccc(OC[C@H]2CCN(CC(F)(F)F)C2)nc1 [Example 405, 5-[(5-Cyanopyridin-2-yl)amino]-3-methyl-N-(6-{[(35)-1-(2,2,2-trifluoroethyl)pyrrolidin-3-yl]methoxy}pyridin-3-yl)-1,2-thiazole-4-carboxamide] | > 20 |
| Cc1nsc(Nc2cnc3ccccc3n2)c1C(=O)Nc1cccc(C(=O)N[C@H](C(=O)OC(C)(C)C)[C@@H](C)OC(C)(C)C)c1 [Example 57, tert-Butyl O-tert-butyl-N-[3-({[3-methyl-5-(quinoxalin-2-ylamino)-1,2-thiazol-4 yl]carbonyl}amino)-benzoyl]threoninate] | ≥ 20 |
| COCCOc1ccc(NC(=O)c2c(C)nsc2Nc2nc3c(C(F)(F)F)cccc3s2)cn1 [Example 3, N-[6-(2-Methoxyethoxy)pyridin-3-yl]-3-methyl-5-{[4-(trifluoromethyl)-1,3-benzo-thiazol-2-yl]amino}-1,2-thiazole-4-carboxamide] | ≥ 20 |
| Cc1nsc(Nc2cnc3ccccc3n2)c1C(=O)Nc1cccc(C(=O)N2CCN(C(=O)OC(C)(C)C)CC2)c1 [Example 55, tert-Butyl 4-[3-({[3-methyl-5-(quinoxalin-2-ylamino)-1,2-thiazol-4-yl]carbonyl}amino)-benzoyl]piperazine-1-carboxylate] | ≥ 20 |
| Cc1nsc(Nc2ccc(C#N)cn2)c1C(=O)Nc1ccc(Nc2ccc(F)c(F)c2)nc1 [Example 433, 5-[(5-Cyanopyridin-2-yl)amino]-N-{6-[(3,4-difluorophenyl)amino]pyridin-3-yl}-3-methyl-1,2-thiazole-4-carboxamide] | > 20 |
| Cc1nsc(Nc2cc(C#N)ccn2)c1C(=O)Nc1ccc(OC2CCCNC2)nc1 (stereo not drawn) [Example 35, 5-[(4-Cyanopyridin-2-yl)amino]-3-methyl-N-[6-(piperidin-3-yloxy)pyridin-3-yl]-1,2-thiazole-4-carboxamide] | ≥ 20 |
| Cc1nsc(Nc2cnc(C(F)(F)F)cn2)c1C(=O)Nc1ccc(OC2CCNCC2)c(F)c1 [Example 431, N-[3-Fluoro-4-(piperidin-4-yloxy)phenyl]-3-methyl-5-{[5-(trifluoromethyl)pyrazin-2-yl]amino}-1,2-thiazole-4-carboxamide] | > 20 |
| Cc1nsc(Nc2cnc(C(F)(F)F)cn2)c1C(=O)Nc1ccc(OCCN(C)C(=O)OC(C)(C)C)nc1 [Example 429, tert-Butyl methyl{2-[(5-{[(3-methyl-5-{[5-(trifluoromethyl)pyrazin-2-yl]amino}-1,2-thiazol-4-yl)carbonyl]amino}pyridin-2-yl)oxy]ethyl}carbannate] | > 20 |
